The values below come from patent US6638938B1, “Method for preventing tissue injury from hypoxia” (Cell Therapeutics, Inc., priority 1993, dated 2003).

Experiment [1] concerns LPAAT (lysophosphatidic acyltransferase). Description: inhibition of LPAAT activity. It counts as biochemical. The note with it: LPAAT activated by IL-1.
For experiment [2], the system named is mRNA for IL-1β, IL-6, TNFα and IFN-γ. Description: cytokine mRNA by PCR in murine hemorrhage and resuscitation model. It counts as in vivo, Balb/C mice. The procedure: This example illustrates a study of Lisofylline in a murine hemorrhage and resuscitation model. Male Balb/C mice, 8-12 weeks of age, were obtained from Harlan-Sprague Dawley (Indianapolis, Ind.). The animals were kept on a 12 hour light/dark cycle with free access to food and water. With this model, 30% of the calculated blood volume (approximately 0.55 ml for a 20 gram mouse) was withdrawn from a methoxyflurane anesthetized mouse by cardiac puncture over a 60-second period. The blood was collected into a heparinized syringe (5 units heparin), kept at 37° C. for one hour, then reinfused into the mouse through a retroorbital plexus injection. Using this method, one is able to resuscitate all hemorrhaged mice without complication. The total period of methoxyflurane anesthesia is less than 2 minutes in all cases. The mortality rate with this hemorrhage protocol is approximately 12%, with all deaths occurring over the 24 hours post hemorrhage, and most deaths occurring within the one hour post hemorrhage.
Mice were treated with 100 mg/kg Lisofylline in 0.2 ml PBS and given initially i.v., by retroorbital injection, then i.p. every 8 hours for a total of 9 doses. In hemorrhaged mice, the Lisofylline in PBS was added to the shed blood, and then given retroorbitally with the blood during the resuscitation phase. In hemorrhaged Balb/C mice (n=3), sacrificed by exsanguination 5 minutes after receiving Lisofylline with the blood used for resuscitation, serum levels of Lisofylline were 44±6 μg/ml.
Intraparenchymal pulmonary mononuclear cells were isolated by collagenase digestion and Percoll® gradient purification using techniques previously described. Briefly, after the mouse was killed by cervical dislocation or exsanguination, the chest was opened and the lung vascular bed was flushed by injecting 3-5 ml of chilled (4° C.) PBS into the right ventricle. The lungs were then excised, avoiding the paratracheal lymph nodes, and washed twice in RPMI 1640. The lungs were minced finely, and the tissue pieces placed in RPMI 1640 with 5% FCS, penicillin/streptomycin, 10 mM HEPES, 50 μM 2-ME, 20 mM L-glutamine, containing 20 U/ml collagenase and 1 μg/ml DNase. Following incubation for 60 minutes at 37° C., any remaining intact tissue was disrupted by passage through a 21 gauge needle. Tissue fragments and the majority of dead cells were removed by rapid filtration through a glass wool column, and cells collected by centrifugation. The cell pellet was suspended in 4 ml of 80% Percoll® (Pharmacia, Uppsala, Sweden) and 4 ml of 40% Percoll® was then layered on. After centrifugation at 600 g for 20 minutes at 15° C., the cells at the interface were collected, washed in RPMI 1640, and counted. Viability, as determined by trypan blue exclusion, was consistently greater than 98%.
Peripheral blood mononuclear cells were isolated from heparinized blood which had been diluted 2:1 with PBS, pH 7.3, and layered onto a gradient containing 4 ml Lympholyte M (Accurate Chemicals, San Diego, Calif.). After centrifugation at 600 g for 20 minutes at 15° C., the cells at the interface were collected, washed in RPMI 1640, and counted. Viability, as determined by trypan blue exclusion, was consistently greater than 98%. Plasma was collected following centrifugation of bloodto whichhad beenadded 10^−3 M EDTA.
mRNA was isolated using oligo dT cellulose minicolumns (Invitrogen San Diego, Calif.). cDNA was synthesized from the mRNA of 100,000 cells for all cell populations except alveolar macrophages (where 20,000 cells were used) using Moloney murine leukemia virus reverse transcriptase and random hexamer oligonucleotides according to the procedure of Kawasaki (PCR Protocols: A Guide to Methods and Applications, Innis et al., eds, pp. 21-27, Academic Press, New York, 1991). […]

The test system of a further experiment is human neutrophils. Description: neutrophil adherence to nylon fiber. It counts as cell-based. From the text:
Human recombinant interleukin-1α (IL-1) was obtained from Hoffmann-LaRoche, Inc. (Nutley, N.J.), frozen inaliquots and thawed daily for use. Ketamine hydrochloride was obtained from Parke-Davis (Morris Plains, N.J.), xylazine from Haver (New York, N.J.), ^125I labeled bovine serum albumin (BSA) from ICN Radiochemicals (Irvine, Calif.), and heparin sodium from Elkins-Sinn, Inc. (Cherry Hill, N.J.). All other reagents were purchased from Sigma Chemical Co. (St. Louis, Mo.). Neutrophils were purified from human blood by well described methods. Venous blood was anticoagulated with heparin and the cellular elements were separated from platelet-rich plasma by centrifugation. Cell pellets were resuspended in platelet-poor plasma and diluted 1:4 with 6% dextran (Pharmacia Fine Chemicals, Piscataway, N.J.) in saline. Red cells were separated from leukocytes by sedimentation. Leukocyte-rich supernatants were then aspirated, underlain with Ficoll-Hypaque (Pharmacia Fine Chemicals), and centrifuged at 275×g to separate neutrophils and monocytes. Sedimented neutrophils were resuspended in Hank's balanced salt solution (HBSS). These preparations contained 94 to 96% neutrophils and 4 to 6% monocytes. All values were compared by analysis of variance and corrected by post hoc Student t tests for differences between groups. A p value of <0.05 was considered significant.
Neutrophil adherence was measured using the nylon fiber technique. Briefly, 50 mg of scrubbed nylon fiber (3-XXX), 3.81 cm type 200 (Travenol Laboratories, Deerfield, Ill.), was packed into the distal 10 mm of the barrels of tuberculin syringes. Ficoll-Hypaque-purified human neutrophils (1×10^7 cells) in plasma (total volume, 0.25 ml) with and without Lisofylline were then placed in the top of the nylon fiber column which was maintained at 37° C. After 90 sec, the plunger was inserted and the samples were eluted. Eluted neutrophils were counted by hemocytometer, and percentages of neutrophils adhering to the nylon fiber were calculated by the following formula: [formula]
Neutrophil chemotactic activity was determined by Boyden chamber assay and quantitated as the number of migrating PMN/5HPF using zymosan-activated serum (ZAS) as the chemoattractant (Repine et al., J. Reticuloendo. Soc. 24:217, 1978). Neutrophil adherence was assessed by quantitating the percentage of neutrophils adhering to nylon fibers following addition of phorbol myristate acetate (PMA 10-^6M, Sigma) (Rasp et al., J. Reticuloendo. Soc. 25:101, 1979). Neutrophil superoxide production was determined by quantitating superoxide dismutase inhibitable reduction of cytochrome c in response to PMA (10^−6 M) (Berger et al., J. Infectious Dis. 149:413, 1984).

For `C[C@@H](O)CCCCn1c(=O)c2c(ncn2C)n(C)c1=O` [Lisofylline, 1-R-(5-hydroxyhexyl)-3,7-dimethylxanthine], the “mode of LPAAT inhibition” value in experiment [1] was “direct inactivator and competitive inhibitor”. Besides, the “murine lung cytokine levels (FIG. 5)” value in experiment [2] (determined by PCR, following hemorrhage and resuscitation) was “significantly decreased”. The “lung cytokine concentrations (FIG. 7)” value in experiment [2] (following hemorrhage shock in mice, model of ARDS) was “significantly decreased”. In addition, the “TNFα mRNA levels in PBMC” value in experiment [2] (hemorrhage/resuscitated mice treated, versus untreated, 3 days) is “significantly decreased”. The “amounts of mRNA for IL-1β and TNF among cells isolated from BAL samples” value in experiment [2] (hemorrhaged/resuscitated mice treated, versus normal untreated or normal treated mice) is on record as “not different”. The “levels of mRNA for IL-1β, IL-6, TNFα and IFN-γ among intraparenchymal pulmonary mononuclear cells” value in experiment [2] (hemorrhaged/resuscitated mice treated, versus untreated, 3 days) is listed as “significantly decreased”. The “mRNA levels in PBMC for IL-1β, IL-6, TNFα and IFN-γ” value in experiment [2] (treatment after hemorrhage) is reported as “did not affect”. Besides, the “Neutrophil Adherence” value is 35.8 ± 4.52 (4)δ % with human neutrophils (Neutrophils + PMA + Lisofylline 0.7 μM), 38.8 ± 1.38 (4)δ % in the experiment with human neutrophils (Neutrophils + PMA + Lisofylline 7 μM), 25.6 ± 2.78 (5)δ % in the experiment on human neutrophils (Neutrophils + PMA + Lisofylline 70 μM) and 26.6 ± 6.03 (5)δ % in the experiment on human neutrophils (Neutrophils + PMA + Lisofylline 700 μM). Moreover, the “stimulated human neutrophil adherence” value with human neutrophils (PMA 10^-6 M, in vitro) was “reduced”.
